In US8598118B2, “Hepatocyte growth factor mimics as therapeutic agents” (Washington State University, priority 2011, dated 2013):
Where a SMILES comes first, the peptide text is derived from it. [ ]: non-standard residue; d: D form. The star is where a group is joined. dNle = CCCC[C@@H](N)C(=O)O; Hexanoyl = CCCCCC(=O)*; Ahx = NCCCCCC(=O)O

What was measured:
[1] = Stability of Dihexa in the blood (not shown); assay type: in vitro ADME
[2] = tested on: MDCK cells; experiment: Inhibition of HGF-dependent scattering in MDCK cells; assay type: cell-based, canine; conditions: 20 ng/ml HGF, 48 h
Method: (§1) MDCK cells were grown to 100% confluency on the coverslips in six-well plates and washed twice with PBS. The confluent coverslips were then aseptically transferred to new six well plates containing 900 μl serum free DMEM. Norleual, Hinge peptide, and/or HGF (20 ng/ml) were added to appropriate wells. Control wells received PBS vehicle. Plates were incubated at 37° C. with 5% CO2 for 48 hours. Media was removed and cells were fixed with methanol. Cells were stained with Diff-Quik Wright-Giemsa (Dade-Behring, Newark, Del.) and digital images were taken. Coverslips were removed with forceps and more digital images were captured. Pixel quantification of images was achieved using Image J and statistics were performed using Prism 5 and InStat v.3.05.
as §1, with “h.” for “hours.”, “v.3.05 (GraphPad; San Diego, Calif.).” for “v.3.05.”

[3] = tested on: B16-F10 murine melanoma cells; experiment: B16-F10 melanoma lung colony formation; assay type: in vivo; conditions: daily IP 10 μg/kg/day and 100 μg/kg/day, 14 days, C57BL/6 mice
Method: Six to eight month old C57BL/6 mice were injected with 400,000 B16-F10 cells in 200 μl PBS by tail vein injection and subsequently received daily intraperitoneal injections of either D-Nle-X-Cys-NH—(CH2)5—CONH2 (10 μg/kg and 100 μg/kg) or a PBS vehicle control. Two weeks later, mice were anesthetized and lungs were perfused with PBS and removed. Photos were taken and lungs were solubilized in 1% Triton x-100, 20 mM Tris, 0.15 M NaCl, 2 mM EDTA, and 0.02% sodium azide. Samples were disrupted by sonication (Mixonix, Farmingdale, N.Y.) and spun. The supernatant was transferred to a 96 well plate and melanin absorbance at 410 nm was measured using a plate reader.

[4] = tested on: Met; experiment: Inhibition of HGF-dependent Met phosphorylation in HEK293 cells; assay type: cell-based, human; conditions: 10 min
Method: HEK293 cells were seeded in 6 well tissue culture plates and grown to 95% confluency in DMEM containing 10% FBS. The cells were serum deprived for 24 h prior to the treatment to reduce the basal levels of phospho-Met. Following serum starvation, cocktails comprised of vehicle and HGF with/without 6-AH analogs were prepared and pre-incubated for 30 min at room temperature. The cocktail was then added to the cells for 10 min to stimulate the Met receptor and downstream proteins. Cells were harvested using RIPA lysis buffer (Millipore; Billerica, Mass.) fortified with phosphatase inhibitor cocktails 1 and 2 (Sigma-Aldrich; St. Louis, Mo.). The lysate was clarified by centrifugation at 15,000 nx g for 15 min, protein concentrations were determined using the BCA total protein assay (Pierce), and then appropriate volumes of the lysates were diluted with 2× reducing Laemmli buffer and heated for ten min at 95° C. Samples containing identical amounts of protein were resolved using SDS-PAGE (Criterion, BioRad Laboratories), transferred to nitrocellulose, and blocked in Tris-buffered saline (TBS) containing 5% milk for 1 h at room temperature. The phospho-Met antibody were added to the blocking buffer at a final concentration of 1:1000 and incubated at 4° C. overnight with gentle agitation. The membranes were then washed several times with water and TBS ([…], 0.05% Tween-20), a 1:5000 dilution of horseradish-peroxidase conjugated goat anti-rabbit antiserum was added, and the membranes further incubated for 1 h at room temperature. Proteins were visualized using the Supersignal West Pico Chemiluminescent Substrate system (Pierce, Fenton, Mo.) and molecular weights determined by comparison to protein ladders (BenchMark, Invitrogen, and Kaleidoscope, BioRad). Film images were digitized and analyzed using a UVP phosphoimager.

[5] = tested on: MDCK cells; experiment: HGF-dependent MDCK cell proliferation (MTT); assay type: cell-based, canine; conditions: analog 10^−10M, 4 days
Method: 5000 MDCK cells were seeded into the wells of a 96 well plates in 10% FBS DMEM. To induce cellular quiescence, the cells were serum deprived for 24 h prior to initiating the treatments. Following serum starvation, 10 ng/ml HGF alone and with various concentrations of 6-AH analogs or PBS vehicle were added to the media. The cells were allowed to grow under these conditions for 4 days with a daily addition of 6-AH analogs. On the fourth day, 1 mg/ml of […] (MTT, Sigma-Aldrich) prepared in PBS was added to the cells and incubated for 4 h. Dimethyl sulfoxide diluted in a 0.01M glycine buffer was added to solubilize the cell membranes and the absorbance of reduced MTT in the buffer was quantitated at 590 nm using a plate reader (Biotek Synergy 2, Winooski, Vt.). HGF-dependent proliferation was determined by subtracting the basal proliferation (in the absence of HGF) from total proliferation rates in groups containing HGF.

[6] = rat, iv, 24 mg/kg
Method: (§2) Male Sprague-Dawley rats (250+ g) were allowed food (Harlan Teklad rodent diet) and water ad libitum in our AAALAC certified animal facility. Rats were housed in temperature-controlled rooms with a 12 h light/dark cycle. The right jugular veins of the rats were catheterized with sterile polyurethane Hydrocoat™ catheters (Access Technologies, Skokie, Ill., USA) under ketamine (Fort Dodge Animal Health, Fort Dodge, Iowa, USA) and isoflurane (Vet One™, MWI, Meridian, Id., USA) anesthesia. The catheters were exteriorized through the dorsal skin. The catheters were flushed with heparinized saline before and after blood sample collection and filled with heparin-glycerol locking solution (6 mL glycerol, 3 mL saline, 0.5 mL gentamycin (100 mg/mL), 0.5 mL heparin (10,000 u/mL)) when not used for more than 8 h. The animals were allowed to recover from surgery for several days before use in any experiment, and were fasted overnight prior to the pharmacokinetic experiment.
(§3) Catheterized rats were placed in metabolic cages prior to the start of the study and time zero blood samples were collected. […] After dosing, blood samples were collected as follows (times and blood volumes collected are listed in chronological order):
(§4) After each blood sample was taken, the catheter was flushed with saline solution and a volume of saline equal to the volume of blood taken was injected (to maintain total blood volume).
(§5) Upon collection into polypropylene microfuge tubes without heparin, blood samples were immediately centrifuged at 4° C., 2300×g for 5 min to remove any cells and clots and the serum transferred into clean microcentrifuge tubes. A volume of internal standard (Nle^1-AngIV, 100 μg/mL) equal to 0.1 times the sample serum volume was added. A volume of ice-cold acetonitrile equal to four times the sample serum volume was then added and the sample vortexed vigorously for 30 s. The supernatants were transferred to clean tubes, then held on ice until the end of the experiment, and stored at 4° C. afterward until further processing.
(§6) All samples were evaporated to dryness in a Savant SpeedVac® concentrator. […] The samples were then transferred to HPLC autosampler vials and 100 μl was injected into the HPLC system a total of 2 times (2 HPLC/MS analyses) for each sample.
(§7) Data collection and integration were achieved using Shimadzu LCMS solution software. The analytical column used was an Econosphere C18 (100 mm×2.1 mm) from Grace Davison Discovery Science (Deerfield, Ill., USA). The mobile phase consisted of HPLC grade methanol and water with 0.1% trifluoroacetic acid. Separation was carried out using a non-isocratic method (40%-50% methanol over 10 min) at ambient temperature and a flow rate of 0.3 mL/min. […] Data were normalized based on the recovery of the internal standard.
(§8) Pharmacokinetic analysis was performed using data from individual rats. The mean and standard deviation (SD) were calculated for the group.

[7] = in vivo; conditions: male, Sprague-Dawley, rat, iv, 24 mg/kg
Method: as §2, §3, §4, §5, §6, §7, §8

[8] = Blood stability studies (heparinized rat blood, 37° C.); assay type: in vitro ADME; conditions: heparinized whole blood, single phase exponential decay, read-out: stability t1/2 in blood
Method: At the end of each incubation, 20 μL of Nle^1-AngIV (100 μg/mL) was added to each sample as an internal standard. […] All samples were centrifuged at 4° C., 2300×g for 5 min and the supernatants were transferred to clean tubes.
Samples were then separated by HPLC on an Econosphere C18 (100 mm×2.1 mm) from Grace Davison Discovery Science (Deerfield, Ill.). […] The mobile phase consisted of HPLC water (Sigma St. Louis, Mo.) with 0.1% trifluoroacetic or 0.1% heptafluorobutyric acid (Sigma St. Louis, Mo.) and varying concentrations of ACN or methanol. Separation was carried out using a gradient method, at ambient temperature and a flow rate of 0.3 mL/min (see below for more information). Stability half-lives were determined assuming a normal single phase exponential decay using Prism 5 graphical/statistical program (GraphPad, San Diego, Calif.).

Compound | stable in the blood [1] | inhibition of HGF-dependent MDCK cell scattering [2] | inhibition of B16-F10 melanoma lung colonization [3] | inhibition of B16-F10 melanoma lung colonization ([3]; listed as D-Nle-Cys-Ile-(6)-amino-hexanoic amide) | inhibition of HGF-dependent Met auto-phosphorylation [4] | inhibition of HGF-dependent MDCK cell proliferation [5] | t½ (in vivo elimination half-life) ([6]; male, Sprague-Dawley) | KE ([6]; in vivo) | AUC(0-inf) [7] | Vd [7] | clearance [7] | half-life [7] | half-life [8]
CCCCCC(=O)N[C@@H](Cc1ccc(O)cc1)C(=O)N[C@H](C(=O)NCCCCCC(N)=O)[C@@H](C)CC [Dihexa, N-hexanoic-Tyr-Ile-(6)-aminohexanoic amide] (Hexanoyl-Tyr-Ile-[Ahx]-NH2) | over 5 hours | – | – | – | – | – | – | – | – | – | – | – | –
CCCC[C@@H](N)C(=O)N[C@@H](CS)C(=O)N[C@H](C(=O)NCCCCCC(N)=O)[C@@H](C)CC [D-Nle-Cys-Ile-NH—(CH2)5—CONH2] (H-[dNle]CI[Ahx]-NH2) | – | different from the HGF alone group but not different from the control group | radically prevented lung colonization | obvious reduction in melanoma colonies | able to block Met auto-phosphorylation | marked inhibitory activity | – | – | – | – | – | – | –
CCCC[C@@H](N)C(=O)N[C@@H](Cc1ccc(O)cc1)C(=O)N[C@H](C(=O)NCCCCCC(N)=O)[C@@H](C)CC (H-[dNle]YI[Ahx]-NH2) | – | different from the HGF alone group but not different from the control group | – | – | able to block Met auto-phosphorylation | marked inhibitory activity | 16.867 ± 6.523 h | 0.001 ± 0.0002 min⁻¹ | 11500 ng·h/mL | 104 ± 65 L/kg | 58.3 ± 15.6 mL/min/kg | 16.9 h | 1.33 h
